Laboratory results taken from patent publication US11957684B2, “Treatment of heavy menstrual bleeding associated with uterine fibroids” (Sumitomo Pharma Switzerland GmbH, priority 2016, dated 2024).
Several values for one entry are separate records, joined by “and”; a condition that tells them apart may be missing. Equal values may be shown once.

Experiments:
[1] = Example 5A: plasma concentrations, population PK; format: in vivo, human
Protocol: (§1) At Visit 3, blood was drawn twice, at 0.5 to 1.5 hours postdose and at 2 to 5 hours postdose, from each evaluable subject. At Visits 4, 5 and 6, blood was drawn once immediately prior to the dose for each day, and again at 0.5 to 1.5 hours postdose and at 2 to 5 hours postdose, from each evaluable subject. Blood was drawn only once for patients who took the study drug for the day before visiting the investigational site. At Visit 7, blood was drawn only once at the visit.

[2] = tested on: LH, FSH, estradiol (E2), progesterone (P); test: Example 5A: serum LH, FSH, E2, P; format: in vivo, human
Protocol: as §1

[3] = tested on: women with uterine fibroids; conditions: in vivo
Protocol: The primary endpoint was the proportion of patients with a total Pictorial Blood Loss Assessment Chart (PBAC) score 4 of <10 from Week 6 to 12. Secondary endpoints included amenorrhea (PBAC score of 0), myoma and uterine volumes, hemoglobin (Hb), Numerical Rating Scale (NRS) score, Uterine Fibroid Symptom and Quality of Life (UFS-QOL) scores. Serum levels of luteinizing hormone (LH), follicle-stimulating hormone (FSH), estradiol (E2) and progesterone (P) were evaluated as pharmacodynamics endpoints. Safety endpoints included adverse events (AEs), vital signs, weight, 12-lead electrocardiogram (ECG), clinical laboratory tests, bone mineral density (BMD) and recovery of menstruation.
The bone mineral density (BMD) of the second to fourth lumbar vertebra (L2 to L4) was measured using dual X-ray absorptiometry (DXA).

FIG. 6A = test: FIG. 6A
Protocol: Table printed on a drawing sheet, FIG. 6A
(§2) The patent's description of the figure: FIGS. 6A-C are tables of plasma PK parameters for Cohort 7 in accordance with Example 4.
First reader's note: Plasma PK parameters for the fed and fasted 40 mg arms; the table continues in FIGS. 6B-C on other sheets.

FIG. 6C = test: FIG. 6C
Protocol: Table printed on a drawing sheet, FIG. 6C
as §2
First reader's note: Part of a plasma PK table series (FIGS. 6A-C) for Cohort 7; each column is a fed or fasted 40 mg arm.

FIG. 10 = test: FIG. 10
Protocol: Table printed on a drawing sheet, FIG. 10
The patent's description of the figure: FIG. 10 is a table of urine PK parameters for Cohort 7 in accordance with Example 4.
First reader's note: Urine PK parameters for Cohort 7 (fed vs fasted, 40 mg); each column is a dosing arm and the rows give summary statistics per parameter.

FIG. 11 = test: FIG. 11
Description: Table printed on a drawing sheet, FIG. 11
The patent's description of the figure: FIG. 11 is a table of plasma and urine PK parameters for Cohorts 8 to 10 on Days 1 and 14 of the treatment period in accordance with Example 4.
First reader's note: Each column is one dose cohort on one treatment day; the Min and Max rows give the range of the median Tmax, and 'nc' is not explained on the sheet.

FIG. 13 = test: FIG. 13
Description: Table printed on a drawing sheet, FIG. 13
The patent's description of the figure: FIG. 13 is a table of urine PK parameters for Cohorts 8 to 10 on Day 14 of the treatment period in accordance with Example 4.
First reader's note: Per the description these are urine PK parameters for Cohorts 8 to 10 on Day 14; each column is one dose group.

CONC(=O)Nc1ccc(-c2sc3c(c2CN(C)C)c(=O)n(-c2ccc(OC)nn2)c(=O)n3Cc2c(F)cccc2F)cc1 [Compound 1, N-(4-(1-(2,6-difluorobenzyl)-5-((dimethylamino)methyl)-3-(6-methoxy-3-pyridazinyl)-2,4-dioxo-1,2,3,4-tetrahydrothieno[2,3-d]pyrimidin-6-yl)phenyl)-N′-methoxyurea]
increase in relative bioavailability, 40 mg vs 10 mg ([1]; human, plasma, oral, population PK, read-out: relative bioavailability higher in 40-mg compared with 10-mg): 30.9%
absorption rate constant (ka) ([1]; population estimate): 0.416 h⁻¹
apparent oral clearance (CL/F) ([1]; population estimate): 198 L/h
median serum E2 ([2]; 10 mg, Week 2): 82.5 pg/mL
median serum FSH ([2]; 10 mg, Week 2): 5.990 mIU/mL
median serum LH ([2]; 10 mg, Week 2): 3.815 mIU/mL
median serum P ([2]; 10 mg, Week 2): 0.315 ng/mL
median serum E2 ([2]; 10 mg, Week 4): 58.0 pg/mL
median serum FSH ([2]; 10 mg, Week 4): 5.225 mIU/mL
median serum LH ([2]; 10 mg, Week 4): 2.565 mIU/mL
median serum P ([2]; 10 mg, Week 4): 0.440 ng/mL
median serum E2 ([2]; 10 mg, Week 8): 52.0 pg/mL
median serum FSH ([2]; 10 mg, Week 8): 6.150 mIU/mL
median serum LH ([2]; 10 mg, Week 8): 3.460 mIU/mL
median serum P ([2]; 10 mg, Week 8): 0.360 ng/mL
median change in serum E2 from baseline ([2]; 10 mg, Week 12): 0.0 pg/mL
median change in serum FSH from baseline ([2]; 10 mg, Week 12): −1.060 mIU/mL
median change in serum LH from baseline ([2]; 10 mg, Week 12): 0.420 mIU/mL
median change in serum P from baseline ([2]; 10 mg, Week 12): 0.080 ng/mL
median serum E2 ([2]; 10 mg, Week 12): 57.0 pg/mL
median serum FSH ([2]; 10 mg, Week 12): 6.200 mIU/mL
median serum LH ([2]; 10 mg, Week 12): 3.550 mIU/mL
median serum P ([2]; 10 mg, Week 12): 0.410 ng/mL
median serum E2 ([2]; 20 mg, Week 2): 25.0 pg/mL
median serum FSH ([2]; 20 mg, Week 2): 5.705 mIU/mL
median serum LH ([2]; 20 mg, Week 2): 2.520 mIU/mL
median serum P ([2]; 20 mg, Week 2): 0.235 ng/mL
median serum E2 ([2]; 20 mg, Week 4): 23.5 pg/mL
median serum FSH ([2]; 20 mg, Week 4): 4.660 mIU/mL
median serum LH ([2]; 20 mg, Week 4): 1.750 mIU/mL
median serum P ([2]; 20 mg, Week 4): 0.270 ng/mL
median serum E2 ([2]; 20 mg, Week 8): 16.0 pg/mL
median serum FSH ([2]; 20 mg, Week 8): 4.840 mIU/mL
median serum LH ([2]; 20 mg, Week 8): 2.260 mIU/mL
median serum P ([2]; 20 mg, Week 8): 0.250 ng/mL
median change in serum E2 from baseline ([2]; 20 mg, Week 12): -18.5 pg/mL
median change in serum FSH from baseline ([2]; 20 mg, Week 12): −0.720 mIU/mL
median change in serum LH from baseline ([2]; 20 mg, Week 12): −0.895 mIU/mL
median change in serum P from baseline ([2]; 20 mg, Week 12): -0.090 ng/mL
median serum E2 ([2]; 20 mg, Week 12): 13.0 pg/mL
median serum FSH ([2]; 20 mg, Week 12): 5.710 mIU/mL
median serum LH ([2]; 20 mg, Week 12): 2.685 mIU/mL
median serum P ([2]; 20 mg, Week 12): 0.250 ng/mL
median serum FSH ([2]; 40 mg, Week 2): 4.280 mIU/mL
median serum LH ([2]; 40 mg, Week 2): 0.720 mIU/mL
median serum P ([2]; 40 mg, Week 2): 0.230 ng/mL
median serum E2 ([2]; 40 mg, Week 4): 0.0 pg/mL
median serum FSH ([2]; 40 mg, Week 4): 3.710 mIU/mL
median serum LH ([2]; 40 mg, Week 4): 0.550 mIU/mL
median serum P ([2]; 40 mg, Week 4): 0.240 ng/mL
median serum E2 ([2]; 40 mg, Week 8): 0.0 pg/mL
median serum FSH ([2]; 40 mg, Week 8): 3.210 mIU/mL
median serum LH ([2]; 40 mg, Week 8): 0.570 mIU/mL
median serum P ([2]; 40 mg, Week 8): 0.220 ng/mL
median change in serum E2 from baseline ([2]; 40 mg, Week 12): -35.0 pg/mL
median change in serum FSH from baseline ([2]; 40 mg, Week 12): −3.180 mIU/mL
median change in serum LH from baseline ([2]; 40 mg, Week 12): −2.760 mIU/mL
median change in serum P from baseline ([2]; 40 mg, Week 12): -0.060 ng/mL
median serum E2 ([2]; 40 mg, Week 12): 0.0 pg/mL
median serum FSH ([2]; 40 mg, Week 12): 2.950 mIU/mL
median serum LH ([2]; 40 mg, Week 12): 0.650 mIU/mL
median serum P ([2]; 40 mg, Week 12): 0.250 ng/mL
menstruation recovery period after the last dose [3]: 20 to 35 days
AUC (O-inf) (ng*hr/mL) | Mean (FIG. 6A): 63.437 ng·h/mL and 125.275 ng·h/mL
AUC (O-tlqc) (ng*hr/mL) | Mean (FIG. 6A): 55.792 ng·h/mL and 110.782 ng·h/mL
CL/F (L/hr) | Mean (FIG. 6C): 739.7 L/h and 445.4 L/h
Vz/F (L) | Mean (FIG. 6C): 17932.0 L and 11042.3 L
CLr (L/hr) | Mean (FIG. 10): 6.1047 L/h and 6.7583 L/h
Fe (%) | Mean (FIG. 10): 0.919% and 1.963%
Tmax (hr) | Median (FIG. 11): 1.00 h
Ae (0-24) (ng) | Median (FIG. 13): 141057.00 ng
CLr (L/hr) | Mean (FIG. 13): 6.4821 L/h and 6.7992 L/h and 6.8776 L/h
Fe (%) | Mean (FIG. 13): 1.335% and 1.930% and 1.955%
